Laboratory results as given in US20240140986A1, “SYNTHETIC URSOLIC ACID DERIVATIVES AND METHODS OF USE THEREOF” (REATA PHARMACEUTICALS, INC., priority 2021, published 2024).
Like-named read-outs stand apart in the source and are kept apart here. Values belong to the molecule of their own block, whether it stands above or below them.

Experiments:
[1] = tested on: IFNγ-induced NO production in RAW 264.7 cells; assay: Nitric Oxide Suppression Assay (IFNγ-induced NO, Griess nitrite readout); format: cell-based, mouse; conditions: for IC50: Mus musculus; for Avg NO IC50 Relative to RTA402 (fold): Table 2, ratio to RTA402
Procedure: Tissue Culture: RAW 264.7, a mouse macrophage cell line, was obtained from American Type Culture Collection (Manassas VA) and maintained in the log phase of growth in Roswell Park Memorial Institute Medium 1640 (RPMI 1640) supplemented with 10% heat inactivated fetal bovine serum and 1% penicillin-streptomycin. Cells were cultured and maintained in a humidified incubator at 37° C. under 5% C02. Cells were sub-cultured every 2-4 days. All cell culture supplies were obtained from Life Technologies (Grand Island, NY) and VWR (Radnor, PA).
Nitric Oxide Suppression Assay. RAW 264.7 cells were plated 1 day in advance of experimental treatments at a concentration of 30,000 cells per well onto Falcon-96 well clear bottom plates (Corning, NY) in a total volume of 200 μL per well using RPMI 1640 supplemented with 0.5% fetal bovine serum and 1% penicillin-streptomycin. The next day, cells were pretreated with compounds serially diluted from 1000×stocks. All compounds were dissolved in dimethyl sulfoxide (DMSO) usually at 10 mM stock solutions. Compounds were subsequently diluted in DMSO and RPMI 1640. Each well received a final concentration of 0.1% DMSO. Cells were pretreated for 2 hours and incubation at 37° C., followed by treatment with 20 ng/mL of interferon gamma (R&D Systems, Minneapolis, MN) per well for 24 hours. The next day, a nitrite standard was serially diluted from 100 μM to 1.6 μM in RPMI 1640. Afterwards, 50 μL of cell culture supernatant was transferred from each well into a new Falcon-96 well clear bottom plate. Nitrite was measured as surrogate for nitric oxide using Promega's Griess Detection Kit #G2930 (Madison, WI) which involves the addition of 50 μL of the provided sulfanilamide solution to each well of the transferred cell culture supernatant and standards, followed by a 10-minute incubation at room temperature. Next, 50 μL of the provided N-1-napthylethylenediamine dihydrochloride (NED) solution was added to the sulfanilamide reaction and incubated for 10 minutes at room temperature in the dark. Afterwards, air bubbles were removed using ethanol vapor and absorbance was measured using a Spectramax M2e plate reader with a wavelength set to 525 nm. Viability was assessed using WST-1 cell proliferation reagent from Roche (Basel, Switzerland). After media was removed for the Nitric Oxide suppression assay, 15 μL of WST-1 reagent was added to each well of cells. Plates were briefly mixed on an orbital shaker and the cells were incubated at 37° C. for 30-90 minutes. Absorbance was measured using a Spectramax M2e plate reader with wavelengths set to 440 nm and 700 nm.
For the ability of compounds to suppress the increase in nitric oxide release caused by interferon gamma, the absolute amount of nitrite that was produced in each well was extrapolated from the nitrite standards using a linear regression fit. All values were then normalized to the DMSO-interferon gamma treated wells and plotted as percent nitric oxide. IC50 values were calculated using Excel and/or GraphPad Prism (San Diego, CA).

[2] = tested on: Nrf2 / ARE-dependent luciferase in AREc32 reporter cell line; assay: AREc32 luciferase reporter activation (Nrf2 induction); format: cell-based, human; conditions: for EC (2-fold): Homo sapiens, Arec32; for Relative Avg AREc32 EC2X Relative to RTA402 (fold): ratio to RTA402
Procedure: Effect on Ludferase Reporter Activation. Nrf2 is a transcription factor that binds to the antioxidant response element (ARE) sequence in the promoter regions of its target genes. AREc32 reporter cell line (derived from human breast carcinoma MCF7 cells) was obtained was from CXR Bioscience Limited (Dundee, UK) and cultured in DMEM (low glucose) supplemented with 10% FBS, 1% penicillin/streptomycin, and 0.8 mg/ml Geneticin (G418). This cell line is stably transfected with a luciferase reporter gene under the transcriptional control of eight copies of the rat GSTA2 ARE sequence (5′-GTGACAAAGCA-3′) (Wang et al., 2006). Expression of Firefly luciferase from this reporter plasmid is controlled by binding of Nrf2 to these ARE sequences. Measurement of ARE-dependent luciferase activity allows quantitative assessment of Nrf2 induction. AREc32 cell line has previously been used in studies characterizing different Nrf2 activators (Dinkova-Kostova & Wang, 2011; Roubalová et al., 2016; Roubalová et al, 2017; Wu et al, 2012).
The effect of several compounds disclosed herein on luciferase reporter activation was assessed in the AREc32 reporter cell line (see Table 10 and Table 11). This cell line is derived from human breast carcinoma MCF-7 cells and is stably transfected with a luciferase reporter gene under the transcriptional control of eight copies of the antioxidant response element from the rat Gsta2 gene, an Nrf2 target gene (Frilling et al., 1990). AREc32 cells were plated in black 96-well plates in 200 μL media at 20,000 cells per well. Twenty-four hours after plating, cells were treated with vehicle (DMSO) or test compounds at concentrations ranging from 0.03 to 1000 nM for nineteen hours. Media was removed and 100 μL of 1:1 mixture of the One-Glo Luciferase assay reagent and culture medium was added to each well. After incubation for 5 min at room temperature, the luminescence signal was measured on a PHERAstar plate reader. The EC2X value was determined using Excel and GraphPad Prism software. The fold increase in luminescence signal for cells treated with each concentration of compound relative to cells treated with vehicle was determined and a dose-response curve was generated. The dose-response curve was fit using nonlinear regression analysis and used to extrapolate the EC2X value. The EC2X value is defined as the concentration of test compound required to increase the luminescence signal 2-fold above levels in vehicle-treated samples.

[3] = RAW264.7, Table 3, oleanolic acid derivative analogs, read-out: Avg NO IC50
[4] = Table 3, oleanolic acid derivative analogs, read-out: Avg ARE EC-2X
[5] = RAW264.7, Table 2, RAW 264.7 cells, 2 h pretreatment, 20 ng/mL interferon gamma 24 h, read-out: Avg NO IC50 (nM) (Mean ± SD)
[6] = Table 2, concentration increasing luminescence 2-fold above vehicle, 19 h treatment, read-out: Avg AREc32 EC2X (nM) (Mean ± SD)
[7] = RAW264.7, Table 3, ursolic acid derivatives, read-out: Avg NO IC50 (nM) (Mean ± SD)
[8] = Table 3, ursolic acid derivatives, read-out: Avg ARE EC-2X (nM) (Mean ± SD)

SMILES: CC1(C)CC[C@]2(Cn3ccnn3)CC[C@]3(C)[C@H](C(=O)C=C4[C@@]5(C)C=C(C#N)C(=O)C(C)(C)[C@@H]5CC[C@]43C)[C@@H]2C1 [CC50, reference compound]
IC50 [1, 3]: 1.1 nM | EC (2-fold) [2, 4]: 9.57 nM

SMILES: C[C@@H]1[C@H]2[C@H]3C(=O)C=C4[C@@]5(C)C=C(C#N)C(=O)C(C)(C)[C@@H]5CC[C@@]4(C)[C@]3(C)CC[C@@]2(N2CCOC2=O)CC[C@H]1C [CC59, reference compound]
IC50 [1, 3]: 2.2 nM | EC (2-fold) [2, 4]: 23.6 nM

SMILES: CC1(C)CC[C@]2(n3ccnc3)CC[C@]3(C)[C@H](C(=O)C=C4[C@@]5(C)C=C(C#N)C(=O)C(C)(C)[C@@H]5CC[C@]43C)[C@@H]2C1 [CC62, reference compound]
IC50 [1, 3]: 3.2 nM | EC (2-fold) [2, 4]: 26.8 nM

SMILES: Cc1nnc([C@]23CCC(C)(C)C[C@H]2[C@H]2C(=O)C=C4[C@@]5(C)C=C(C#N)C(=O)C(C)(C)[C@@H]5CC[C@@]4(C)[C@]2(C)CC3)o1 [CC69, reference compound]
IC50 [1, 3]: 2.2 nM | EC (2-fold) [2, 4]: 9.81 nM

SMILES: Cc1noc([C@]23CC[C@@H](C)[C@H](C)[C@H]2[C@H]2C(=O)C=C4[C@@]5(C)C=C(C#N)C(=O)C(C)(C)[C@@H]5CC[C@@]4(C)[C@]2(C)CC3)n1 [Compound T1]
IC50 [1, 5]: 3.76 ± 1.35 nM | Avg NO IC50 Relative to RTA402 (fold) [1]: 2.53 ± 0.74 fold | EC (2-fold) [2, 6]: 8.44 ± 1.56 nM | Relative Avg AREc32 EC2X Relative to RTA402 (fold) ([2]; Table 2): 0.744 ± 0.121 fold

SMILES: C[C@@H]1[C@H]2[C@H]3C(=O)C=C4[C@@]5(C)C=C(C#N)C(=O)C(C)(C)[C@@H]5CC[C@@]4(C)[C@]3(C)CC[C@@]2(c2nc(C3CC3)no2)CC[C@H]1C [Compound T2]
IC50 [1, 5]: 21.3 ± 7.4 nM | IC50 [1, 7]: 21.3 ± 7.4 nM | Avg NO IC50 Relative to RTA402 (fold) [1]: 9.86 ± 0.83 fold | EC (2-fold) [2, 6]: 35 ± 2 nM | EC (2-fold) [2, 8]: 35 ± 2 nM | Relative Avg AREc32 EC2X Relative to RTA402 (fold) ([2]; Table 2): 3.41 ± 0.20 fold

SMILES: COCc1noc([C@]23CC[C@@H](C)[C@H](C)[C@H]2[C@H]2C(=O)C=C4[C@@]5(C)C=C(C#N)C(=O)C(C)(C)[C@@H]5CC[C@@]4(C)[C@]2(C)CC3)n1 [Compound T3]
IC50 [1, 5]: 5.1 ± 1.02 nM | Avg NO IC50 Relative to RTA402 (fold) [1]: 2.51 ± 0.94 fold | EC (2-fold) [2, 6]: 6.16 ± 1.02 nM | Relative Avg AREc32 EC2X Relative to RTA402 (fold) ([2]; Table 2): 0.598 ± 0.137 fold

SMILES: CCc1noc([C@]23CC[C@@H](C)[C@H](C)[C@H]2[C@H]2C(=O)C=C4[C@@]5(C)C=C(C#N)C(=O)C(C)(C)[C@@H]5CC[C@@]4(C)[C@]2(C)CC3)n1 [Compound T4]
IC50 [1, 5]: 14.8 ± 2.9 nM | IC50 [1, 7]: 14.8 ± 2.9 nM | Avg NO IC50 Relative to RTA402 (fold) [1]: 7.06 ± 0.83 fold | EC (2-fold) [2, 6]: 19.9 ± 0.2 nM | EC (2-fold) [2, 8]: 19.9 ± 0.2 nM | Relative Avg AREc32 EC2X Relative to RTA402 (fold) ([2]; Table 2): 1.93 ± 0.23 fold

SMILES: C[C@@H]1[C@H]2[C@H]3C(=O)C=C4[C@@]5(C)C=C(C#N)C(=O)C(C)(C)[C@@H]5CC[C@@]4(C)[C@]3(C)CC[C@@]2(c2nc(CCO)no2)CC[C@H]1C [Compound T5]
IC50 [1, 5]: 1.81 ± 0.331 nM | Avg NO IC50 Relative to RTA402 (fold) [1]: 1.24 ± 0.13 fold | EC (2-fold) [2, 6]: 2.4 ± 0.75 nM | Relative Avg AREc32 EC2X Relative to RTA402 (fold) ([2]; Table 2): 0.224 ± 0.196 fold

SMILES: COC(C)c1noc([C@]23CC[C@@H](C)[C@H](C)[C@H]2[C@H]2C(=O)C=C4[C@@]5(C)C=C(C#N)C(=O)C(C)(C)[C@@H]5CC[C@@]4(C)[C@]2(C)CC3)n1 (some centres unmarked) [Compound T6]
IC50 [1, 5]: 7.66 ± 1.52 nM | Avg NO IC50 Relative to RTA402 (fold) [1]: 3.67 ± 1.40 fold | EC (2-fold) [2, 6]: 11.8 ± 1.9 nM | Relative Avg AREc32 EC2X Relative to RTA402 (fold) ([2]; Table 2): 1.03 ± 0.01 fold

SMILES: COCCc1noc([C@]23CC[C@@H](C)[C@H](C)[C@H]2[C@H]2C(=O)C=C4[C@@]5(C)C=C(C#N)C(=O)C(C)(C)[C@@H]5CC[C@@]4(C)[C@]2(C)CC3)n1 [Compound T7]
IC50 [1, 5]: 3.65 ± 1.87 nM | Avg NO IC50 Relative to RTA402 (fold) [1]: 1.62 ± 0.54 fold | EC (2-fold) [2, 6]: 6.16 ± 0.7 nM | Relative Avg AREc32 EC2X Relative to RTA402 (fold) ([2]; Table 2): 0.595 ± 0.079 fold

Now from value to molecule, other results behind:

IC50 [1, 3]: 1.2 nM
SMILES: CC1(C)CC[C@]2(Cn3cncn3)CC[C@]3(C)[C@H](C(=O)C=C4[C@@]5(C)C=C(C#N)C(=O)C(C)(C)[C@@H]5CC[C@]43C)[C@@H]2C1 [CC47, reference compound]
EC (2-fold) [2, 4]: 10.7 nM

IC50 [1, 3]: 3.9 nM
SMILES: CC1(C)CC[C@]2(Cn3ccnc3)CC[C@]3(C)[C@H](C(=O)C=C4[C@@]5(C)C=C(C#N)C(=O)C(C)(C)[C@@H]5CC[C@]43C)[C@@H]2C1 [CC51, reference compound]
EC (2-fold) [2, 4]: 18 nM

IC50 [1, 3]: 8.6 nM
SMILES: CC1(C)CC[C@]2(CN3NCCC3=O)CC[C@]3(C)[C@H](C(=O)C=C4[C@@]5(C)C=C(C#N)C(=O)C(C)(C)[C@@H]5CC[C@]43C)[C@@H]2C1 [CC54, reference compound]
EC (2-fold) [2, 4]: 11.7 nM

IC50 [1, 3]: 4.3 nM
SMILES: CC1(C)CC[C@]2(N3CCC3=O)CC[C@]3(C)[C@H](C(=O)C=C4[C@@]5(C)C=C(C#N)C(=O)C(C)(C)[C@@H]5CC[C@]43C)[C@@H]2C1 [CC74, reference compound]
EC (2-fold) [2, 4]: 36.1 nM

IC50 [1, 3]: 3.8 nM
SMILES: Cc1nc([C@]23CCC(C)(C)C[C@H]2[C@H]2C(=O)C=C4[C@@]5(C)C=C(C#N)C(=O)C(C)(C)[C@@H]5CC[C@@]4(C)[C@]2(C)CC3)no1 [CC82, reference compound]
EC (2-fold) [2, 4]: 22.1 nM
